These results are taken from patent publication US20240428951A1, “METHODS AND SYSTEMS FOR PERSONALIZED IN-SILICO HEMATOPOIESIS AND DISEASE/LEUKEMIA SIMULATION FOR TREATMENT SELECTION AND OPTIMIZATION” (GEORGIA TECH RESEARCH CORPORATION, priority 2021, published 2024).

One assay relates to leukemic blasts. As to the kind of experiment: Patient leukemia response to treatment (percentage of leukemic blasts in BM, clinical assessments compared with simulation). Particulars: one patient. The assay is classed as in vivo, human. The source says: FIGS. 9A and 9B show examples of visual representations of retrospective comparisons of dynamic prediction of the overall percentage of abnormal cells/leukemic blasts (lines) determined using the method according to embodiments and patient clinical assessments (dots).
FIGS. 9A and 9B show examples of visualizations of dynamic prediction of the overall percentage of leukemic blasts. By showing the percentage of overall leukemic blasts (addition of all subclones) in graphs, the leukemic burden in BM can be visualized.

Assay [1] can be described thus: Patient peripheral blood / neutrophil recovery during treatment. The assay is classed as in vivo, human. The note with it: one patient, 4 cycles of low-dose treatment (FIG. 10A, 11A). From the text:
FIGS. 10A and 10B show examples of visual representations of dynamic prediction of peripheral blood recovery determined using the method according to embodiments.
FIGS. 11A and 11B show examples of visual representations of retrospective comparisons of dynamic prediction of absolute neutrophils count (lines) determined using the method according to embodiments and patient clinical assessment of daily neutrophils count during treatment (dots).
The patient initially presented with granulocytic dysplasia that delayed neutrophil recovery.

Structures are written as SMILES.

As for `Nc1ccn([C@@H]2O[C@H](CO)[C@@H](O)[C@@H]2O)c(=O)n1` [Ara-C, Cytosine Arabinoside], the treatment outcome in the assay on leukemic blasts (2 cycles of low-dose treatment (FIG. 9A)) is “complete remission”; with leukemic blasts (4 cycles of low-dose treatment (FIG. 10A, 11A)), “complete remission”. For the same molecule, in the assay with leukemic blasts (2 cycles of low-dose treatment (FIG. 9A), bone marrow), the leukemic blasts is less than 5%. For the same molecule, in assay [1], the hematological recovery result was “complete hematological recovery”.
